From patent publication US7998985B2, “1,5-diphenyl-3-pyridinylamino-1,5-dihydropyrrolidin-2-one as CB1 receptor modulator” (Eli Lilly and Company, priority 2006, dated 2011)

Columns and labels:
[1] = test system: alcohol-preferring (P) rats; assay: 12-hour ethanol consumption in alcohol-preferring rats (P rats); format: in vivo, rat; conditions: female P rats, 15% (v/v) ethanol, continuous free access; Example 2 given p.o.
Source text: Evaluate Example 2 for its ability to reduce consumption of ethanol in rats selectively bred for high oral ethanol intake (P rats). In addition, study the effects of Example 2 under conditions in which effects of the compound on motivation or the control of behavior by ethanol could be assessed.
Methods: Study the effects of Example 2 on female, alcohol-preferring (P) rats on alcohol consumption under a continuous free access paradigm. For comparative purposes test the standard opioid antagonist naltrexone. Monitor voluntary consumption of 15% (v/v) ethanol. Suspend Example 2 in vehicle (1% CMC, 0.5% SLS, 0.08% povidone, 0.05% Dow Corning antifoam 1510 US) and give p.o. 3 hours prior to the onset of the dark cycle. In addition, measure locomotor activity via infrared sensor.

[2] = biological target: hCB1 (Homo sapiens, UniProt P21554); assay: hCB1 SPA GTPγ35S Sf9 membranes, antagonist mode (Table 3); format: biochemical; parameters: purchased Applied Cell Sciences, Gaithersburg, Md; PerkinElmer Life Sciences, Boston, Mass; host or cells: Sf9 insect cells (recombinant expression), membranes; conditions: hCB1 SPA GTPγ35S Sf9 Mem 22.7 ug protein/well Antagonist; read-out: Inverse Agonist Potency CB1 (Kb)
hCB1, sequence (P21554 whole entry): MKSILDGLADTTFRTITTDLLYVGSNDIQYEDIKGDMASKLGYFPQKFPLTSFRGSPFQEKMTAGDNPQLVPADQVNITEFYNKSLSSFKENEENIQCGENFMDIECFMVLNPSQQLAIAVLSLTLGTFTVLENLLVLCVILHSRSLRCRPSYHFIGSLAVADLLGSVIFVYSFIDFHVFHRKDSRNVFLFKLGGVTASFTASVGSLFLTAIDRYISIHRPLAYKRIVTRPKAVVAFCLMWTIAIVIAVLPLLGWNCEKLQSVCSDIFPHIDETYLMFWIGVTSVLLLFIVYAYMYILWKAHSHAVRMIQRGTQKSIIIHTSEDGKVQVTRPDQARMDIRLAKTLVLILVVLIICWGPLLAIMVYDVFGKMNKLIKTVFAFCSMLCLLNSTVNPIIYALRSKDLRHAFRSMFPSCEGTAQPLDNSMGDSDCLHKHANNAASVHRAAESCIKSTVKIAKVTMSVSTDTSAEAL

[3] = biological target: T1, human CB2 receptor (Homo sapiens, UniProt P34972); assay: Antibody-capture SPA GTP-γ-35S binding, antagonist/inverse agonist mode, human CB2 (Sf9 membranes); format: biochemical; conditions: Table 3
T1 construct: purchased Applied Cell Sciences, Gaithersburg, Md; PerkinElmer Life Sciences, Boston, Mass; host or cells: Sf9 insect cells (recombinant expression), membranes
T1 sequence (P34972 whole entry): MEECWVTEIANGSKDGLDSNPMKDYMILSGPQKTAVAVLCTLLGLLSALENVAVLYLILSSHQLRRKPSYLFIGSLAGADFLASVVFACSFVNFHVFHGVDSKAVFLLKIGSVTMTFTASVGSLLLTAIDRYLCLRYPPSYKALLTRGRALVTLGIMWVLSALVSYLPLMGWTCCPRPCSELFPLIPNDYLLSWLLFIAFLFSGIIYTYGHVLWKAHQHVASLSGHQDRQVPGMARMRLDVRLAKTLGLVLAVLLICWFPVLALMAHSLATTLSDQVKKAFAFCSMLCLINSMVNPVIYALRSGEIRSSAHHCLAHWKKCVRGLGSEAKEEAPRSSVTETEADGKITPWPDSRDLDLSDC

[4] = Bioavailability, rat; conditions: in vivo
Source text: (§1) Methods for accessing bioavailability are well appreciated in the art. One such reference is Medicinal Research Reviews Vol. 21 No. 5 382-396 (2001).

[5] = Bioavailability, dog; conditions: in vivo
Source text: as §1

[6] = test system: NIH male Swiss mice; assay: Forced Swim Test (FST); format: in vivo, mouse; conditions: 90 minute pre-treatment, lowest dose with significant decrease in immobility time
Experimental: Receive NIH male Swiss mice (Harlan Sprague-Dawley, weight 20-25 g) 7 to 10 days prior to testing. House 12 mice per cage. Test only animals that weigh 25-30 g. On the day of testing, bring animals to the testing room at least 1 hour prior to dosing. When dosing starts, dose at 6-8 minute intervals between each dose with each mouse receiving either Administer vehicle (1% CMC, 0.5% SLS, 0.08% povidone, 0.05% antifoam) or Example 2, p.o. Next, place mice in a clean cage (4 mice per cage). After 90 minutes, start the test following a 90 minute pre-treatment with Example 2 or vehicle.
Mice FST: Place NIH-Swiss mice in clear plastic cylinders (diameter: 10 cm; height: 25 cm) filled to 6 cm with 22-25° C. water for six minutes. Record the duration of immobility during the last 4 minutes of the six-minute trial. A mouse is regarded as immobile when floating motionless or making only those movements necessary to keep its head above the water. Analyze data by ANOVA with a post-hoc Dunnett's test (alpha=0.05; JMP). Record the minimum effective dose (MED) as the lowest dose of compound at which statistically significant decrease in immobility time is observed versus a vehicle control.

With O=C1CC[C@@]2(O)[C@H]3Cc4ccc(O)c5c4[C@@]2(CCN3CC2CC2)[C@H]1O5 [Naltrexone, naltrexone, reference compound] the consumption of ethanol [1] was “at higher doses, was also able to reduce ethanol intake”.

For CC(C)(N[C@H]1C[C@H](c2cccc(OC(F)(F)F)c2)N(c2ccc(C(F)(F)F)cc2)C1=O)c1ccc(C(F)(F)F)nc1.Cl [drawing 24], the Kb [2] was 8.8 nM and the “Inverse Agonist Potency CB2 (Kb, nM)” value [3] was “No measurable activity”.

With CC(C)(N[C@H]1C[C@H](c2cccc(OC(F)(F)F)c2)N(c2ccc(C(F)(F)F)cc2)C1=O)c1ccc(C(F)(F)F)nc1.Cc1ccc(S(=O)(=O)O)cc1 [drawing 23] the Kb [2] was 3 nM and the “Inverse Agonist Potency CB2 (Kb, nM)” value [3] was “No measurable activity”.

For CC(C)(N[C@@H]1C[C@H](c2cccc(OC(F)(F)F)c2)N(c2ccc(C(F)(F)F)cc2)C1=O)c1ccc(C(F)(F)F)nc1.Cc1ccc(S(=O)(=O)O)cc1 [drawing 21], the bioavailability [4] was 65%, the bioavailability [5] was 60% and the “FST (MED mg/kg p.o.)” value [6] was 1 mg/kg. For the same molecule, the “Inverse Agonist Potency CB2 (Kb, nM)” value [3] was “No measurable activity”.

In the case of CC(C)(N[C@@H]1C[C@H](c2cccc(OC(F)(F)F)c2)N(c2ccc(C(F)(F)F)cc2)C1=O)c1ccc(C(F)(F)F)nc1.Cl [drawing 22], the “Inverse Agonist Potency CB2 (Kb, nM)” value [3] is reported as “No measurable activity”.
